Experimental data published in patent US11311520B2, “Substituted dihydroimidazopyridinediones as MKNK1 and MKNK2 inhibitors” (Bayer Pharma Aktiengesellschaft, priority 2017, dated 2022).

Molecular target: human full-length MKNK1 (Homo sapiens (Human), UniProt Q9BUB5, T344D)
Test: MKNK1 kinase high ATP assay (TR-FRET)
Type: biochemical
Conditions: 2 mM ATP, 15 min preincubation with enzyme, GST-MKNK1 (T344D)
Description: MKNK1 Kinase High ATP Assay
MKNK1-inhibitory activity at high ATP of compounds of the present invention after their preincubation with MKNK1 was quantified employing the TR-FRET-based MKNK1 high ATP assay as described in the following paragraphs.
A recombinant fusion protein of Glutathione-S-Transferase (GST, N-terminally) and human full-length MKNK1 (amino acids 1-424 and T344D of accession number BAA 19885.1), expressed in insect cells using baculovirus expression system and purified via glutathione sepharose affinity chromatography, was purchased from Carna Biosciences (product no 02-145) and used as enzyme. As substrate for the kinase reaction the biotinylated peptide biotin-Ahx-IKKRKLTRRKSLKG (SEQ ID NO: 1) (C-terminus in amide form) was used, which can be purchased e.g. from the company Biosyntan (Berlin-Buch, Germany)
For the assay 50 nL of a 100 fold concentrated solution of the test compound in DMSO was pipetted into a black low volume 384 well microtiter plate (Greiner Bio-One, Frickenhausen, Germany), 2 μL of a solution of MKNK1 in aqueous assay buffer [50 mM HEPES pH 7.5, 5 mM MgCl2, 1.0 mM dithiothreitol, 0.005% (v/v) Nonidet-P40 (Sigma)] was added and the mixture was incubated for […] at 22° C. to allow pre-binding of the test compounds to the enzyme before the start of the kinase reaction. Then the kinase reaction was started by the addition of 3 μL of a solution of adenosine-tri-phosphate (ATP, 3.3 mM=>final conc. in the 5 μL assay volume is 2 mM) and substrate (0.1 μM=>final conc. in the 5 μL assay volume is 0.06 μM) in assay buffer and the resulting mixture was incubated for a reaction time of 30 min at 22° C. The concentration of MKNK1 was adjusted depending of the activity of the enzyme lot and was chosen appropriate to have the assay in the linear range, typical concentrations were in the range of 0.003 μg/mL. The reaction was stopped by the addition of 5 μL of a solution of TR-FRET detection reagents (5 nM streptavidine-XL665 [Cisbio Bioassays, Codolet, France] and 1 nM anti-ribosomal protein S6 (pSer236)-antibody from Invitrogen [#44921G] and 1 nM LANCE EU-W1024 labeled ProteinG [Perkin-Elmer, product no. AD0071]) in an aqueous EDTA-solution (100 mM EDTA, 0.1% (w/v) bovine serum albumin in 50 mM HEPES pH 7.5).
The resulting mixture was incubated for 1 h at 22° C. to allow the formation of complex between the phosphorylated biotinylated peptide and the detection reagents. Subsequently the amount of phosphorylated substrate was evaluated by measurement of the resonance energy transfer from the Eu-chelate to the streptavidine-XL. Therefore, the fluorescence emissions at 620 nm and 665 nm after excitation at 350 nm were measured in a TR-FRET reader, e.g. a Rubystar (BMG Labtechnologies, Offenburg, Germany) or a Viewlux (Perkin-Elmer). The ratio of the emissions at 665 nm and at […] was taken as the measure for the amount of phosphorylated substrate. The data were normalised (enzyme reaction without inhibitor=0% inhibition, all other assay components but no enzyme=100% inhibition).

human full-length MKNK1, sequence (Q9BUB5 other isoform, or with tags, fused parts or gaps T344D): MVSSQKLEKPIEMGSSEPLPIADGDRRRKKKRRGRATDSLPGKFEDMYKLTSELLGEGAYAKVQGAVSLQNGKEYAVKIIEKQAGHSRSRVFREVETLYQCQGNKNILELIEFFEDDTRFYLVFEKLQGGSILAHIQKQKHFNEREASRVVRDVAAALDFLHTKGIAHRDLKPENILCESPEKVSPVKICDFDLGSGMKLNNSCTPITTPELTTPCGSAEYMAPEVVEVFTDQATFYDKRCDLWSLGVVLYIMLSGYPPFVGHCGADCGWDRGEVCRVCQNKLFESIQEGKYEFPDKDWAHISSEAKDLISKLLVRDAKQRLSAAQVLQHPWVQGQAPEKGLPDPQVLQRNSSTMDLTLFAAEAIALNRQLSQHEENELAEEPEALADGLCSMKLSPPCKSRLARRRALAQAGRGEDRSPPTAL

Compound	IC50 [nM]
Cc1cc(Nc2ncnc3c2CNC3)c(=O)n2c1C(=O)NC21CCC1 [Example 168, 6′-(6,7-Dihydro-5H-pyrrolo[3,4-d]pyrimidin-4-ylamino)-8′-methyl-2′H-spiro[cyclobutane-1,3′-imidazo[1,5-a]pyridine]-1′,5′-dione]	49.5
Cc1cc(Nc2ncnc3[nH]ccc23)c(=O)n2c1C(=O)NC21CCS(=O)(=O)CC1 [Example 198, 8-methyl-6-(7H-pyrrolo[2,3-d]pyrimidin-4-ylamino)-2′,3′,5′,6′-tetrahydro-2H-spiro[imidazo[1,5-a]pyridine-3,4′-thiopyran]-1,5-dione 1′,1′-dioxide]	1.1
Cc1cc(Nc2ncnc3sc(C(=O)N4CCC(N(C)C)CC4)cc23)c(=O)n2c1C(=O)NC21CCC1 [Example 157, 6′-[(6-{[4-(Dimethylamino)piperidin-1-yl]carbonyl}thieno[2,3-d]pyrimidin-4-yl)amino]-8′-methyl-2′H-spiro[cyclobutane-1,3′-imidazo[1,5-a]pyridine]-1′,5′-dione]	7.9
Cc1cc(Nc2ncnc3sc(C(=O)O)c(C)c23)c(=O)n2c1C(=O)NC21CCC1 [Example 169]	15.7
Cc1cc(Nc2ncnc3c2CN(C(=O)OC(C)(C)C)C3)c(=O)n2c1C(=O)NC2(C)C [Example 163, tert-Butyl 4-[(3,3,8-trimethyl-1,5-dioxo-1,2,3,5-tetrahydroimidazo[1,5-a]pyridin-6-yl)amino]-5,7-dihydro-6H-pyrrolo[3,4-d]pyrimidine-6-carboxylate]	16.8
Cc1cc(Nc2ncnc3ccc(Cl)cc23)c(=O)n2c1C(=O)NC21CCSCC1 [Example 197, 6-[(6-chloroquinazolin-4-yl)amino]-8-methyl-2′,3′,5′,6′-tetrahydro-2H-spiro[imidazo[1,5-a]pyridine-3,4′-thiopyran]-1,5-dione]	14.9
Cc1cc(Nc2ncnc3scnc23)c(=O)n2c1C(=O)NC2(C)C [Example 164, 3,3,8-Trimethyl-6-([1,3]thiazolo[5,4-d]pyrimidin-7-ylamino)-2,3-dihydroimidazo[1,5-a]pyridine-1,5-dione]	383
Cc1cc(Nc2ncnc3ccc(Cl)cc23)c(=O)n2c1C(=O)N[C@]21CC[C@@](O)(C(F)(F)C(F)(F)F)CC1 [Example 195, (cis)-6′-[(6-chloroquinazolin-4-yl)amino]-4-hydroxy-8′-methyl-4-(pentafluoroethyl)-2′H-spiro[cyclohexane-1,3′-imidazo[1,5-a]pyridine]-1′,5′-dione]	342
Cc1cc(Nc2ncnc3sc(C(N)=O)c(C)c23)c(=O)n2c1C(=O)NC21CCCC1 [Example 107, 5-Methyl-4-[(8′-methyl-1′,5′-dioxo-1′,5′-dihydro-2′H-spiro[cyclopentane-1,3′-imidazo[1,5-a]pyridin]-6′-yl)amino]thieno[2,3-d]pyrimidine-6-carboxamide]	111
Cc1cc(Nc2ncnc3c2ncn3[C@H]2O[C@@H](CO)[C@H](O)[C@H]2O)c(=O)n2c1C(=O)NC21CCCCC1 [Example 47, N-[9-(beta-L-Arabinofuranosyl)-9H-purin-6-yl]-8′-methyl-1′,5′-dioxo-1′,5′-dihydro-2′H-spiro[cyclohexane-1,3′-imidazo[1,5-a]pyridin]-6′-amine]	47.2
Cc1cc(Nc2ncnc3sc(C(=O)N4CCC(N(C)C)CC4)cc23)c(=O)n2c1C(=O)NC21CCC(F)(F)CC1 [Example 87, 6′-[(6-{[4-(Dimethylamino)piperidin-1-yl]carbonyl}thieno[2,3-d]pyrimidin-4-yl)amino]-4,4-difluoro-8′-methyl-2′H-spiro[cyclohexane-1,3′-imidazo[1,5-a]pyridine]-1′,5′-dione]	23.1
Cc1cc(Nc2ncnc3c2CN(C(=O)OC(C)(C)C)C3)c(=O)n2c1C(=O)NC21CCCC1 [Example 103, tert-Butyl 4-[(8′-methyl-1′,5′-dioxo-1′,5′-dihydro-2′H-spiro[cyclopentane-1,3′-imidazo[1,5-a]pyridin]-6′-yl)amino]-5,7-dihydro-6H-pyrrolo[3,4-d]pyrimidine-6-carboxylate]	4.7
Cc1cc(Nc2ccnc3[nH]ccc23)c(=O)n2c1C(=O)NC21CCCCC1 [Example 22, 8′-Methyl-6′-(1H-pyrrolo[2,3-b]pyridin-4-ylamino)-2′H-spiro[cyclohexane-1,3′-imidazo[1,5-a]pyridine]-1′,5′-dione]	12.3
Cc1cc(Nc2ncnc3sc(C(=O)N4CC[C@@H](N(C)C)C4)cc23)c(=O)n2c1C(=O)NC21CCC(F)(F)CC1 [Example 86, 6′-[(6-{[(3R)-3-(Dimethylamino)pyrrolidin-1-yl]carbonyl}thieno[2,3-d]pyrimidin-4-yl)amino]-4,4-difluoro-8′-methyl-2′H-spiro[cyclohexane-1,3′-imidazo[1,5-a]pyridine]-1′,5′-dione]	11.9
Cc1cc(Nc2ncnc(N)n2)c(=O)n2c1C(=O)NC21CCC(F)(F)CC1 [Example 94, 6′-[(4-Amino-1,3,5-triazin-2-yl)amino]-4,4-difluoro-8′-methyl-2′H-spiro[cyclohexane-1,3′-imidazo[1,5-a]pyridine]-1′,5′-dione]	27.8
Cc1cc(Nc2ncnc3sc(C(=O)N(C)CCN(C)C)cc23)c(=O)n2c1C(=O)NC2(C)C [Example 138, N-[2-(Dimethylamino)ethyl]-N-methyl-4-[(3,3,8-trimethyl-1,5-dioxo-1,2,3,5-tetrahydroimidazo[1,5-a]pyridin-6-yl)amino]thieno[2,3-d]pyrimidine-6-carboxamide]	33.6
Cc1cc(Nc2ncnc3sccc23)c(=O)n2c1C(=O)NC21CCC1 [Example 149, 8′-Methyl-6′-(thieno[2,3-d]pyrimidin-4-ylamino)-2′H-spiro[cyclobutane-1,3′-imidazo[1,5-a]pyridine]-1′,5′-dione]	2.3
Cc1cc(Nc2ncnc3c2CNC3)c(=O)n2c1C(=O)NC21CCC(F)(F)CC1 [Example 125, 6′-(6,7-Dihydro-5H-pyrrolo[3,4-d]pyrimidin-4-ylamino)-4,4-difluoro-8′-methyl-2′H-spiro[cyclohexane-1,3′-imidazo[1,5-a]pyridine]-1′,5′-dione]	46.5
Cc1cc(Nc2ncnc3cccc(Cl)c23)c(=O)n2c1C(=O)NC21CCCCC1 [Example 109, 6′-[(5-Chloroquinazolin-4-yl)amino]-8′-methyl-2′H-spiro[cyclohexane-1,3′-imidazo[1,5-a]pyridine]-1′,5′-dione]	10.2
CCCNC(=O)Nc1ncnc(Nc2cc(C)c3n(c2=O)C2(CCCCC2)NC3=O)n1 [Example 3, 1-{4-[(8′-Methyl-1′,5′-dioxo-1′,5′-dihydro-2′H-spiro[cyclohexane-1,3′-imidazo[1,5-a]pyridin]-6′-yl)amino]-1,3,5-triazin-2-yl}-3-propylurea]	18.8
Cc1cc(Nc2ncnc3ccc(F)cc23)c(=O)n2c1C(=O)NC21CSC1 [Example 176, 6-[(6-fluoroquinazolin-4-yl)amino]-8-methyl-2H-spiro[imidazo[1,5-a]pyridine-3,3′-thietane]-1,5-dione]	19
Cc1cc(Nc2ncnc3sc(C(=O)O)cc23)c(=O)n2c1C(=O)NC21CCC(F)(F)CC1 [Example 80, 4-[(4,4-Difluoro-8′-methyl-1′,5′-dioxo-1′,5′-dihydro-2′H-spiro[cyclohexane-1,3′-imidazo[1,5-a]pyridin]-6′-yl)amino]thieno[2,3-d]pyrimidine-6-carboxylic acid]	126
